ChEMBL document CHEMBL5154856, “Targeting the tumor microenvironment by an enzyme-responsive prodrug of tubulin destabilizer for triple-negative breast cancer therapy with high safety” (Eur J Med Chem, 2022)
Active and inactive are the calls of the source. No cut-off for these calls is given here.

Tests used:
[1] = Toxicity in nude mouse assessed as ratio of effect on albumin level to effect on globulin level in serum at 40 mg/kg, iv administered qd for 3 days (reference value: 1.94); assay type: organism-based; settings: in vivo, 72 h, time 3 day
MDA-MB-231 [2] = assay: Antitumour activity against human MDA-MB-231 cells xenografted in nude mouse assessed as tumor growth inhibition at 40 mg/kg, iv administered every 2 days for 14 days; assay type: functional; settings: MDA-MB-231, 336 h, time 14 day, read-out: TGI
[3] = Toxicity in nude mouse assessed as effect on total protein level in serum at 40 mg/kg, iv administered qd for 3 days (reference value: 47.3 g/L); assay type: organism-based; settings: in vivo, 72 h, time 3 day
[4] = Toxicity in nude mouse xenografted with human MDA-MB-231 cells assessed as pathological changes in liver at 20 to 40 mg/kg, iv administered every 2 days for 14 days by H and E staining based assay; assay type: organism-based; settings: in vivo, 336 h, dose 20-40 mg/kg, time 14 day
[5] = Chemical stability of compound at pH 7.4 in bovine serum at 1 mg incubated for 48 hrs by HPLC analysis; assay type: ADME, cell-free; settings: cattle, pH 7.4, 48 h
[6] = Toxicity in nude mouse assessed as effect on basophil level at 40 mg/kg, iv administered qd for 3 days (reference value: 11.70 %); assay type: organism-based; settings: in vivo, 72 h, time 3 day
[7] = Acute toxicity in BALB/c mouse assessed as lethal dose administered intravenously as single dose and measured after 14 days; settings: in vivo, route iv, time 14 day
MDA-MB-231 [8] = assay: Antitumor activity against mouse xenografted with human MDA-MB-231 cells assessed as increase in tumor necrosis area at 20 to 40 mg/kg, iv administered every 2 days for 14 days by H and E staining based assay; assay type: functional, organism-based; settings: dose 20-40 mg/kg, time 14.0 day
MDA-MB-231 [9] = assay: Antitumour activity against human MDA-MB-231 cells xenografted in nude mouse assessed as reduction in tumor volume at 40 mg/kg, iv administered every 2 days for 14 days; assay type: functional, organism-based; settings: time 14.0 day
[10] = Metabolic stability in rat liver microsomes assessed as parent compound remaining at 10 mM measured up to 60 mins in presence of NADPH by LC-MS/MS analysis; assay type: ADME, Microsome; settings: read-out: Stability
[11] = Toxicity in nude mouse xenografted with human MDA-MB-231 cells assessed as pathological changes in spleen at 20 to 40 mg/kg, iv administered every 2 days for 14 days by H and E staining based assay; assay type: organism-based; settings: in vivo, 336 h, dose 20-40 mg/kg, time 14 day
[12] = Toxicity in nude mouse assessed as effect on platelet count at 40 mg/kg, iv administered qd for 3 days (reference value: 21 10^9/L); assay type: organism-based; settings: in vivo, 72 h, time 3 day
[13] = Toxicity in nude mouse assessed as effect on gamma-glutamyl transpeptidase level in serum at 40 mg/kg, iv administered qd for 3 days (Rvb < 2 U/L); assay type: organism-based; settings: in vivo, 72 h, time 3 day
[14] = Cardiotoxicity in nude mouse assessed as abnormal spikes at 20 to 40 mg/kg, iv administered once daily for 3 days by ECG analysis; assay type: toxicity, organism-based; settings: in vivo, 72 h, dose 20-40 mg/kg, time 3 day
MCF7 [15] = assay: Antiproliferative activity against human MCF7 cells assessed as inhibition of cell growth incubated for 48 hrs in presence of beta-glucuronidase by MTT assay; assay type: functional, cell-based; settings: MCF7, 48 h
[16] = Toxicity in nude mouse assessed as effect on globulin level in serum at 40 mg/kg, iv administered qd for 3 days (reference value: 16.1 g/L); assay type: organism-based; settings: in vivo, 72 h, time 3 day
[17] = Toxicity in nude mouse assessed as effect on lymphocyte level at 40 mg/kg, iv administered qd for 3 days (reference value: 60.90 %); assay type: organism-based; settings: in vivo, 72 h, time 3 day
[18] = Acute toxicity in BALB/c mouse assessed as animal survival at […], iv administered as single dose measured after 14 days; assay type: organism-based; settings: in vivo, time 14 day
[19] = Metabolic stability in rat liver microsomes assessed as intrinsic clearance in microsomes at 10 mM measured up to 60 mins in presence of NADPH by LC-MS/MS analysis; assay type: ADME, Microsome; settings: read-out: CLH
HeLa = assay: Antiproliferative activity against human HeLa cells assessed as inhibition of cell growth incubated for 48 hrs in absence of beta-glucuronidase by MTT assay; assay type: functional, cell-based
[20] = Metabolic stability in rat liver microsomes assessed as intrinsic clearance in liver at 10 mM measured up to 60 mins in presence of NADPH by LC-MS/MS analysis; assay type: ADME, Microsome; settings: read-out: CLH
[21] = Toxicity in nude mouse assessed as effect on mean corpuscular hemoglobin level at 40 mg/kg, iv administered qd for 3 days (reference value: 22.3 pg); assay type: organism-based; settings: in vivo, 72 h, time 3 day
SK-OV-3 [22] = assay: Antiproliferative activity against human SK-OV-3 cells assessed as inhibition of cell growth incubated for 48 hrs in absence of beta-glucuronidase by MTT assay; assay type: functional, cell-based; settings: SK-OV-3, 48 h
[23] = Toxicity in nude mouse assessed as effect on monocytes level at 40 mg/kg, iv administered qd for 3 days (reference value: 37.10 %); assay type: organism-based; settings: in vivo, 72 h, time 3 day
[24] = Toxicity in nude mouse xenografted with human MDA-MB-231 cells assessed as pathological changes in kidney at 20 to 40 mg/kg, iv administered every 2 days for 14 days by H and E staining based assay; assay type: organism-based; settings: in vivo, 336 h, dose 20-40 mg/kg, time 14 day
MDA-MB-231 [25] = assay: Antitumour activity against human MDA-MB-231 cells xenografted in nude mouse assessed as tumor growth inhibition at 20 mg/kg,iv administered every 2 days for 14 days; assay type: functional; settings: MDA-MB-231, 336 h, time 14 day, read-out: TGI
MDA-MB-231 [26] = assay: Antiproliferative activity against human MDA-MB-231 cells assessed as inhibition of cell growth incubated for 48 hrs in presence of beta-glucuronidase by MTT assay; assay type: functional, cell-based; settings: MDA-MB-231, 48 h
[27] = Toxicity in nude mouse assessed as effect on neutrophil level at 40 mg/kg, iv administered qd for 3 days (reference value: 7.40 %); assay type: organism-based; settings: in vivo, 72 h, time 3 day
SK-OV-3 [28] = assay: Antiproliferative activity against human SK-OV-3 cells assessed as inhibition of cell growth incubated for 48 hrs in presence of beta-glucuronidase by MTT assay; assay type: functional, cell-based; settings: SK-OV-3, 48 h
[29] = Toxicity in nude mouse assessed as effect on aspartate aminotransferase level in serum at 40 mg/kg, iv administered qd for 3 days (reference value: 424 U/L); assay type: organism-based; settings: in vivo, 72 h, time 3 day
[30] = Toxicity in nude mouse assessed as effect on platelet distribution width at 40 mg/kg, iv administered qd for 3 days (reference value: 20.2); assay type: organism-based; settings: in vivo, 72 h, time 3 day
[31] = Metabolic stability in rat liver microsomes assessed as half life at 10 mM measured up to 60 mins in presence of NADPH by LC-MS/MS analysis; assay type: ADME, Microsome
[32] = Toxicity in nude mouse assessed as effect on red blood cell count at 40 mg/kg, iv administered qd for 3 days (reference value: 0.21 10^12/L); assay type: organism-based; settings: in vivo, 72 h, time 3 day
MDA-MB-231 [33] = assay: Antiproliferative activity against human MDA-MB-231 cells assessed as inhibition of cell growth incubated for 48 hrs in absence of beta-glucuronidase by MTT assay; assay type: functional, cell-based; settings: MDA-MB-231, 48 h
MCF7 [34] = assay: Antiproliferative activity against human MCF7 cells assessed as inhibition of cell growth incubated for 48 hrs in absence of beta-glucuronidase by MTT assay; assay type: functional, cell-based; settings: MCF7, 48 h
[35] = Toxicity in nude mouse assessed as effect on albumin level in serum at 40 mg/kg, iv administered qd for 3 days (reference value: 31.2 g/L); assay type: organism-based; settings: in vivo, 72 h, time 3 day

## COc1ccc([C@H]2[C@H](CO)C(=O)N2c2cc(OC)c(OC)c(OC)c2)cc1OCc1ccc(O[C@@H]2O[C@H](C(=O)O)[C@@H](O)[C@H](O)[C@H]2O)cc1
[1]
  Ratio: 1.84
MDA-MB-231 [2]
  inhibition in vivo at 40 mg/kg: 63%
[3]
  Activity: 45.5 g/L
[4]
  Activity: Non-Toxic
[5]
  Stability: Stable
[6]
  Activity: 6.8%
[7]
  LD50 at 336 h: > 500 mg/kg
MDA-MB-231 [8]
  Activity: Active
MDA-MB-231 [9]
  Activity: Active
[10]
  remaining at 1 h: 74.9%
[11]
  Activity: Non-Toxic
[12]
  Activity: 43 10^9/L
[13]
  Activity: < 2 U/L
[14]
  Activity: Non-Toxic
MCF7 [15]
  IC50: 15.7 nM
[16]
  Activity: 16 g/L
[17]
  Activity: 57.2%
[18]
  survival at 336 h: 75%
[19]
  microsomal CLint: < 9.6 µL/min/mg
HeLa
  IC50: > 50000 nM
[20]
  CLint scaled: < 38 mL/min/kg
[21]
  Activity: 22.3 pg
SK-OV-3 [22]
  IC50: > 50000 nM
[23]
  Activity: 21.9%
[24]
  Activity: Non-Toxic
MDA-MB-231 [25]
  inhibition in vivo at 20 mg/kg: 50%
MDA-MB-231 [26]
  IC50: 11.7 nM
[27]
  Activity: 7.9%
SK-OV-3 [28]
  IC50: 14.1 nM
[29]
  Activity: 503 U/L
[30]
  Activity: 17
[31]
  half-life: > 2.42 h
[32]
  Activity: 0.31 10^12/L
MDA-MB-231 [33]
  IC50: > 50000 nM
MCF7 [34]
  IC50: > 50000 nM
[35]
  Activity: 29.5 g/L
